Test results reported in publication PMC7910904, “Improving the Antioxidant Properties of Calophyllum inophyllum Seed Oil from French Polynesia: Development and Biological Applications of Resinous Ethanol-Soluble Extracts” (Antioxidants, 2021).
≈ marks a conversion by molar mass, not a printed value.

Assays:
DPPH assay = details: for IC50: metabolites and standards, in dichloromethane
Procedure: Experiments were performed according to previous procedures. Aliquots of dichloromethane solutions of oil or fractions (50–500 mg/mL) or test compounds (final concentration 0.01–2 mM) were added to 200 µL of a freshly prepared DPPH solution (75 mg/L), and the final volume was adjusted to 300 µL with dichloromethane to obtain a final DPPH concentration of 0.13 mM. The absorbance was read at 517 nm on a microplate reader 3 min after sample addition. Experiments were performed in triplicate and averaged. The DPPH inhibition was calculated as follows:Inhibition (%) = [100 × (A0 − A)/A0](1)

3T3 fibroblasts = assay: MTT cytotoxicity on 3T3 fibroblasts; type: cell-based, murine; details: Mus musculus, Fibroblast, 50% viability after 48 h
M. tuberculosis H37 RV = assay: Anti-mycobacterial Microplate-based Alamar Blue assay (MABA); type: cell-based; details: Mycobacterium tuberculosis, H37RV
[1] = tested on: A549 human lung carcinoma cells; assay: MTT cytotoxicity on A549 cells; type: cell-based; details: 50% viability after 48 h
[2] = tested on: Staphylococcus aureus (ATCC 6538); assay: Antimicrobial disk-diffusion agar method; type: cell-based; details: for Antimicrobial activity against S. aureus, in words: 20 µg per disc; for zone of inhibition at 20 µg/disc: Staphylococcus aureus, ATCC6538, 20 µg/disk, 24 h, read-out: S. aureus Diameter of the zone of inhibition
[3] = Total peroxyl radical-trapping potential (TRAP) assay; details: for TRAP TE: metabolites and standards: activity of a 1 µM-solution relative to 1 µM Trolox
Procedure: The experimental protocol of the TRAP assay was previously reported. Briefly, AAPH (150 mM) was dissolved in 10 mL of Tris HCl buffer solution (100 mM, pH 7.4), and the solution was kept at 37 °C for 30 min to initiate thermal radical formation. A luminol stock solution (1 mM) was prepared in 50 mL Tris HCl buffer and kept in darkness at 4 °C. A 78 µM, working luminol solution was prepared before each assay by dilution in Tris HCl buffer. Samples for assays were prepared as follows: 2 mL of AAPH (final concentration, 100 mM) and 500 μL of luminol solution (final concentration, 13 µM) were introduced in a 3 mL tube; then, 500 μL of pure acetone (blank) or solution of the tested oil or extract in acetone (0.005–0.2 mg/mL) or DMSO (test compounds: 5–300 µM) were added and the mixture vortexed for 5 s before luminescence analysis. A calibration curve was obtained in the same conditions using the antioxidant Trolox (1–40 μM) as a standard.
Quantification of radical scavenging capacity was performed by integrating the area under the curve (AUC) for the sample and blank solutions, and the results are expressed as Trolox Equivalents (TE) using Equation (2):TE = ([Trolox] × ΔAUC Sample)/([Sample] × ΔAUC Trolox)(2) where ΔAUC Sample (Trolox) = AUC Blank − AUC Sample (Trolox).

[4] = biological target: T1, xanthine oxidase (XO; from buttermilk) (Bos taurus, UniProt P80457); assay: biochemical; details: 30 min, 37 °C; read-out: XO Inhibition IC50 (converted)
T1 construct: purchased Sigma-Aldrich; host or cells: buttermilk (natural source)
T1 sequence (P80457 whole entry): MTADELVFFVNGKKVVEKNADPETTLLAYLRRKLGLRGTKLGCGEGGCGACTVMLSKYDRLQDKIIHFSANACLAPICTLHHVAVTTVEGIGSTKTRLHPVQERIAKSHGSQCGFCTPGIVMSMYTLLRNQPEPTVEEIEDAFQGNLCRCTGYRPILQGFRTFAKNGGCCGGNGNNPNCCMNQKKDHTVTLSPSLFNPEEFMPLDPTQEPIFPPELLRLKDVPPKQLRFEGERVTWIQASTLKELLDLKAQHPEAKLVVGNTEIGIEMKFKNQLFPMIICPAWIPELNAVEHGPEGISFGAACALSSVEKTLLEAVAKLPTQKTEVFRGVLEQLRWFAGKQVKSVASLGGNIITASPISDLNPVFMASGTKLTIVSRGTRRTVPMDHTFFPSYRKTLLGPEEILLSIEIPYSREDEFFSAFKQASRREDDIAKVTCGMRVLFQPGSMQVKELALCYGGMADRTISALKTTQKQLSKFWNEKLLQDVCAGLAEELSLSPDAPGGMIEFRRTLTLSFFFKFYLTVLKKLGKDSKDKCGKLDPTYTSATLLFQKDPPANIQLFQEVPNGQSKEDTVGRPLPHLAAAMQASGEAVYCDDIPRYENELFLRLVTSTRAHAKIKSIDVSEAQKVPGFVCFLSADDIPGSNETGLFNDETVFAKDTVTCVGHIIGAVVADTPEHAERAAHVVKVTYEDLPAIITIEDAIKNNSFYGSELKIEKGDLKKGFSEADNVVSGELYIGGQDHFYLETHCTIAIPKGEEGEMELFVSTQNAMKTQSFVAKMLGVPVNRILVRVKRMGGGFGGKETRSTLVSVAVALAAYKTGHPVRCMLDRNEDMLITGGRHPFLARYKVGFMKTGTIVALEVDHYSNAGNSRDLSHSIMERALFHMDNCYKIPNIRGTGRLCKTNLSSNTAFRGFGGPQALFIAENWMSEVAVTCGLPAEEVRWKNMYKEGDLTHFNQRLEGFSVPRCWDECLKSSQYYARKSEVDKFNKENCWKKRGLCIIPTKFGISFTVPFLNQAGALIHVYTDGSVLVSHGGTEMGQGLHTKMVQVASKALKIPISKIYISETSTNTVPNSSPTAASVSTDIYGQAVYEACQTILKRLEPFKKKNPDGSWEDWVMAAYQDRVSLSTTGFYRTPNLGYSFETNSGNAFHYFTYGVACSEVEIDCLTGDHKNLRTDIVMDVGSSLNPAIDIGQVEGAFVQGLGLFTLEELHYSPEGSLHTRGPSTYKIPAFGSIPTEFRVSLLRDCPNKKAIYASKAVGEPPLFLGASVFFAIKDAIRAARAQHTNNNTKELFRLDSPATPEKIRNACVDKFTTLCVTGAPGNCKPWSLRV
Procedure: All reactants were dissolved in PBS (0.2 M, pH 7.5). The experiments were performed at 37 °C in 96-wells microplates with a final volume of 250 µL/well [30]. […] To all wells, 25 µL of EDTA (0.1 mM in PBS) and 25 µL of xanthine solution (500 µM) were then added, and the reaction was started by adding 50 µL of XO suspension (23.32 mU/mL), while PBS (50 µL) was added in blank samples. The final concentrations were: xanthine, 50 µM; EDTA, 10 µM and XO, 4.7 mU/mL. The wells were incubated for 30 min at 37 °C, and uric acid production was determined by subtracting the absorbance at 290–295 nm of the sample against that of the blank. Each measurement was performed in triplicate.

[5] = Superoxide radical quenching (allopurinol-XO generator, lucigenin luminescence); details: glycine buffer/acetone
Procedure: All reactants were dissolved in glycine buffer, and the reaction was carried out at 25 °C [30]. […] The test tube was inserted in the luminometer, and reaction was initiated by adding a XO suspension (2 µL, 11 mU/mL). Luminescence was monitored for a total period of 7 min and O2^•− quenching was calculated by subtracting areas under the curve against blank. Each measurement was performed in triplicate.

[6] = biological target: T2, Lipoxygenase (15-LOX, soybean) (Glycine max, UniProt P08170); assay: Lipoxygenase inhibitory activity (Cayman kit); type: biochemical; details: compounds at 100 µg/mL
T2 sequence (P08170 1-839): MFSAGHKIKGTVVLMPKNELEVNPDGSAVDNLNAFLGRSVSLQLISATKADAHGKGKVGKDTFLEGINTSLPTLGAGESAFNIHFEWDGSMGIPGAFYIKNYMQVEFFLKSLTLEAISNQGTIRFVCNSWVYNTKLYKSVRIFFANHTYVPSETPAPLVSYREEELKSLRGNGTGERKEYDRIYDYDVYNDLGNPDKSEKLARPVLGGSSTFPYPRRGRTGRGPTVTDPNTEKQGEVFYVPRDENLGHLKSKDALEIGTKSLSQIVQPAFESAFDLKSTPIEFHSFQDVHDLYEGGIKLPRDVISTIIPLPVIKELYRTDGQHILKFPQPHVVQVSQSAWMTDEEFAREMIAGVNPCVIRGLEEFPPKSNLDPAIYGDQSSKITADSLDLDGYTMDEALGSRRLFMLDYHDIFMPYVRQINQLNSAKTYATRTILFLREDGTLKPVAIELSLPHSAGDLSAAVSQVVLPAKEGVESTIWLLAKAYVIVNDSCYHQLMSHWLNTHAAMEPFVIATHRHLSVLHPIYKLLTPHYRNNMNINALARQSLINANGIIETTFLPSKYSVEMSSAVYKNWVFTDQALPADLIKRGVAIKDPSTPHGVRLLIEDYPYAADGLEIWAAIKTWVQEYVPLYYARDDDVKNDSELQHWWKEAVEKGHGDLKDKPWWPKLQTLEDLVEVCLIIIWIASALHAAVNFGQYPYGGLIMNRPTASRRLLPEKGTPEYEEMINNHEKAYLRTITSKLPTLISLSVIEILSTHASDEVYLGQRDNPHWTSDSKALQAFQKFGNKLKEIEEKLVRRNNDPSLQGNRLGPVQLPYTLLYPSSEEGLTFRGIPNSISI
Procedure: Lipoxygenase (15-LOX, soybean) inhibitory activity was evaluated using a commercial assay kit (Cayman Chemicals Co; Item No. 760700) according to the manufacturer’s instructions. Solutions of test samples (10 μL) in methanol were added into 96-wells plates together with assay buffer, and the enzyme was added. The reaction was initiated by adding 10 μL of arachidonic acid to the wells and the plate was placed on a shaker for 15 min. Chromogen solution (100 μL) was added to the wells, the plate was then placed on a shaker for 10 min and absorbance was read at 495–500 nm. […] Results are expressed as a percentage relative to the activity without the test compound.

[7] = Metal chelating capacity (ferrozine); details: EDTA equivalents per gram of extract

| SMILES | DPPH scavenging capacity, in words (DPPH assay) | IC50 (DPPH assay) | IC50 (3T3 fibroblasts) | MIC (M. tuberculosis H37 RV) | IC50 [1] | zone of inhibition at 20 µg/disc [2] | TRAP TE [3] | TRAP activity, in words [3] | further results |
| --- | --- | --- | --- | --- | --- | --- | --- | --- | --- |
| CCCc1cc(=O)oc2c3c(c4c(c12)OC(C)(C)C=C4)O[C@H](C)[C@@H](C)C3=O [12-Oxocalanolide A] | inactive | > 1000 µM | 36 ± 8 µg/mL (≈ 97.7 µM) | > 15 µg/mL | 1.9 ± 0.1 µg/mL (≈ 5.16 µM) | 18 ± 2 mm |  |  | Antimicrobial activity against S. aureus, in words [2]: significant activity |
| COc1ccc(O)c(C(C)(C)C)c1 [BHA, reference compound] |  | 94.9 ± 6.1 µM |  |  |  |  | 3.46 ± 0.20 TE |  |  |
| O=C(O)/C=C/c1ccc(O)c(O)c1 [Caffeic acid] |  | 18.1 ± 0.21 µM |  |  |  |  | 2.98 ± 0.14 TE |  | IC50 [4]: 219 µM; O2•− Quenching IC50 [5]: 0.013 ± 0.06 µg/mL; inhibition at 100 µg/mL [6]: 45 ± 1%; MCC [7]: 125± 5 µmol EDTAE/g |
| CCCc1cc(=O)oc2c3c(c4c(c12)OC(C)(C)C=C4)O[C@H](C)[C@@H](C)[C@@H]3O [Calanolide A] | slightly active | ~950 µM | 52 ± 8 µg/mL (≈ 140 µM) | 4.1 ± 0.3 µg/mL (≈ 11.1 µM) | 8.2 ± 1.7 µg/mL (≈ 22.1 µM) | 14 ± 1 mm | 0.40 ± 0.02 TE |  |  |
| CCCc1cc(=O)oc2c3c(c4c(c12)OC(C)(C)C=C4)O[C@H](C)[C@H](C)C3=O [Calanolide D] | inactive | > 1000 µM |  |  |  |  |  |  |  |
| C/C=C(\C)C(=O)c1c(OC)c2c(c3c(CCC)cc(=O)oc13)OC(C)(C)C=C2 [Calanolide GUT 70] | slightly active | ~900 µM |  |  |  |  | 0.30 ± 0.03 TE | weakly active |  |
| C/C=C(\C)C(=O)c1c(OC)c2c(c3c(-c4ccccc4)cc(=O)oc13)OC(C)(C)C=C2 [Calophyllolide] | slightly active | ~890 µM | 49 ± 4 µg/mL (≈ 118 µM) | > 15 µg/mL | 3.1 ± 0.9 µg/mL (≈ 7.44 µM) | 19 ± 3 mm | 0.48 ± 0.08 TE | weakly active | Antimicrobial activity against S. aureus, in words [2]: significant activity |
| O=C(O)c1cc(O)c(O)c(O)c1 [Gallic acid] |  |  |  |  |  |  |  |  | IC50 [4]: 242 µM; O2•− Quenching IC50 [5]: 0.022 ± 0.01 µg/mL; inhibition at 100 µg/mL [6]: 28 ± 2%; MCC [7]: 90 ± 3 µmol EDTAE/g |
| C=C(C)C(CC=C(C)C)CC1(CC=C(C)C)C(=O)C(C(CCC)CC(=O)O)=C(O)C2=C1O[C@H](C)[C@@H](C)C2=O (stereo partly shown) [Inocalophyllin B] | moderately active | 583 ± 17 µM | 41 ± 5 µg/mL (≈ 77.8 µM) | > 15 µg/mL | 4.2 ± 1.3 µg/mL (≈ 7.97 µM) | 20 ± 2 mm | 1.07 ± 0.06 TE | significant TRAP activity | Antimicrobial activity against S. aureus, in words [2]: active |
| C[C@H]1Oc2c3c(c4c(-c5ccccc5)cc(=O)oc4c2C(=O)[C@@H]1C)OC(C)(C)C=C3 [Inophyllum C] | moderately active | 701 ± 9 µM |  |  |  |  | 0.21 ± 0.04 TE | weakly active |  |
| C[C@@H]1C(=O)c2c(c3c(c4c(-c5ccccc5)cc(=O)oc24)OC(C)(C)C=C3)O[C@@H]1C [Inophyllum E] | moderately active | 481 ± 7 µM | 120 ± 9 µg/mL (≈ 298 µM) | > 15 µg/mL | 44.8 ± 2.2 µg/mL (≈ 111 µM) | 14 ± 2 mm | 0.91 ± 0.04 TE | weakly active |  |
| C[C@@H]1[C@@H](C)Oc2c3c(c4c(-c5ccccc5)cc(=O)oc4c2[C@@H]1O)OC(C)(C)C=C3 [Inophyllum P] | strongly active | 26.2 ± 3.1 µM | 92 ± 4 µg/mL (≈ 227 µM) | 5.7 ± 0.3 µg/mL (≈ 14.1 µM) | 11.3 ± 0.6 µg/mL (≈ 27.9 µM) | 17 ± 1 mm | 4.11 ± 0.10 TE | strong antioxidant activity | TRAP efficiency relative to Trolox [3]: about four times more efficient than Trolox; DPPH: times more active than inophyllums E and C (DPPH assay): 20–30 times; Antimicrobial activity against S. aureus, in words [2]: significant activity |
| Cc1onc(-c2ccccc2)c1C(=O)N[C@@H]1C(=O)N2[C@@H]1SC(C)(C)[C@@H]2C(=O)O [Oxacillin, reference compound] |  |  |  |  |  | 30 ± 1 mm |  |  |  |
| O=c1c(O)c(-c2ccc(O)c(O)c2)oc2cc(O)cc(O)c12 [Quercetin] |  | 14.1 ± 0.21 µM |  |  |  |  | 6.31 ± 0.24 TE |  | O2•− Quenching IC50 [5]: 0.083 ± 0.06 µg/mL; inhibition at 100 µg/mL [6]: 83 ± 2%; MCC [7]: 105 ± 3 µmol EDTAE/g |
| Oc1ccc2c(c1)OCO2 [Sesamol, reference compound] |  | 66.9 ± 3.1 µM |  |  |  |  | 1.34 ± 0.09 TE |  |  |
| [H]/N=C(/N)N[C@H]1[C@H](O)[C@@H](O)[C@H](O[C@@H]2O[C@@H](C)[C@](O)(C=O)[C@H]2O[C@@H]2O[C@@H](CO)[C@H](O)[C@@H](O)[C@@H]2NC)[C@@H](N/C(N)=N\[H])[C@@H]1O [Streptomycin, reference compound] |  |  |  | 0.4 ± 0.1 µg/mL (≈ 0.688 µM) |  |  |  |  |  |
| CCC(C)c1cc(=O)oc2c3c(c4c(c12)OC(C)(C)C=C4)OC(C)C(C)C3O (stereo not shown) [Tamanolide D] | moderately active | 779 ± 7 µM | 46 ± 5 µg/mL (≈ 120 µM) | 5.1 ± 0.3 µg/mL (≈ 13.3 µM) | 9.3 ± 1.2 µg/mL (≈ 24.2 µM) | 12 ± 2 mm | 1.36 ± 0.20 TE |  |  |
| Cc1c(C)c2c(c(C)c1O)CCC(C)(C(=O)O)O2 (stereo not shown) [Trolox, 6-hydroxy-2,5,7,8-tetramethylchroman-2-carboxylic acid, reference compound] |  | 21.2 ± 0.8 µM |  |  |  |  | 1 TE |  |  |
